From publication PMC4352033, “SD-208, a Novel Protein Kinase D Inhibitor, Blocks Prostate Cancer Cell Proliferation and Tumor Growth In Vivo by Inducing G2/M Cell Cycle Arrest” (PLoS ONE, 2015) come the findings set out here.

Holding throughout (type): biochemical
The target of test [1] is T1, PKCα (Homo sapiens, UniProt P17252).
T1 construct: gene PRKCA; recombinant PKCα

In test [2] the target is T2, PKCδ (Homo sapiens, UniProt Q05655).
T2 construct: gene PRKCD; recombinant PKCδ
Put plainly: in vitro radiometric PKC kinase assay.

For test [3], the target named is T3, PKD2 (Homo sapiens, UniProt Q9BZL6).
T3 construct: gene PRKD2; recombinant human PKD2
T3 sequence (Q9BZL6 1-878): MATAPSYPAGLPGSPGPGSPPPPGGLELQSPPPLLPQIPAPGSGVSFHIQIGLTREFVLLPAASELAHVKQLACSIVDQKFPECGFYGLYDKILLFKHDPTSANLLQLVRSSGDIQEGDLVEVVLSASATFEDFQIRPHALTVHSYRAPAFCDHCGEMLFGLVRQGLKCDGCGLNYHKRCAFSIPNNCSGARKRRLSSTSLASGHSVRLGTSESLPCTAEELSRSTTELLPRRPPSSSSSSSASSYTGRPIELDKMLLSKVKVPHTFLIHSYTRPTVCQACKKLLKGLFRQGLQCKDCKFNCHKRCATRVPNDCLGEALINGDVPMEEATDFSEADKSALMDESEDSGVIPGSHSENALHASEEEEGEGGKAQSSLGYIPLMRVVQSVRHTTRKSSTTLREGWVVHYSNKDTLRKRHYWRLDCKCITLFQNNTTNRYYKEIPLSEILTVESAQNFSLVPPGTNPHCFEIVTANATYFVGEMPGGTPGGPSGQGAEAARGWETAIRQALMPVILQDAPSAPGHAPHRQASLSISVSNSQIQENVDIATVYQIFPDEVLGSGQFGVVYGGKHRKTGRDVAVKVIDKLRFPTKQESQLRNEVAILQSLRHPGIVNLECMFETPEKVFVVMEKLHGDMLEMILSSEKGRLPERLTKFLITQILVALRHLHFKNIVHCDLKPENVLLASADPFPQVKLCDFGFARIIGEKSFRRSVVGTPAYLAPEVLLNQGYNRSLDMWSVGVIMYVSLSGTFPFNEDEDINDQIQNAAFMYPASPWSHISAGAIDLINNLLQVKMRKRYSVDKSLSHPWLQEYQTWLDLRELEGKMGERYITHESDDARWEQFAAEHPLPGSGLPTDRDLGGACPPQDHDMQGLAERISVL
Put plainly: in vitro radiometric kinase assay, 10-point curve.

The target of test [4] is T4, protein kinase D1 (PKD1) (Homo sapiens, UniProt Q15139).
T4 construct: gene PRKD1; GST-tagged recombinant human PKD1
T4 sequence (Q15139 1-912): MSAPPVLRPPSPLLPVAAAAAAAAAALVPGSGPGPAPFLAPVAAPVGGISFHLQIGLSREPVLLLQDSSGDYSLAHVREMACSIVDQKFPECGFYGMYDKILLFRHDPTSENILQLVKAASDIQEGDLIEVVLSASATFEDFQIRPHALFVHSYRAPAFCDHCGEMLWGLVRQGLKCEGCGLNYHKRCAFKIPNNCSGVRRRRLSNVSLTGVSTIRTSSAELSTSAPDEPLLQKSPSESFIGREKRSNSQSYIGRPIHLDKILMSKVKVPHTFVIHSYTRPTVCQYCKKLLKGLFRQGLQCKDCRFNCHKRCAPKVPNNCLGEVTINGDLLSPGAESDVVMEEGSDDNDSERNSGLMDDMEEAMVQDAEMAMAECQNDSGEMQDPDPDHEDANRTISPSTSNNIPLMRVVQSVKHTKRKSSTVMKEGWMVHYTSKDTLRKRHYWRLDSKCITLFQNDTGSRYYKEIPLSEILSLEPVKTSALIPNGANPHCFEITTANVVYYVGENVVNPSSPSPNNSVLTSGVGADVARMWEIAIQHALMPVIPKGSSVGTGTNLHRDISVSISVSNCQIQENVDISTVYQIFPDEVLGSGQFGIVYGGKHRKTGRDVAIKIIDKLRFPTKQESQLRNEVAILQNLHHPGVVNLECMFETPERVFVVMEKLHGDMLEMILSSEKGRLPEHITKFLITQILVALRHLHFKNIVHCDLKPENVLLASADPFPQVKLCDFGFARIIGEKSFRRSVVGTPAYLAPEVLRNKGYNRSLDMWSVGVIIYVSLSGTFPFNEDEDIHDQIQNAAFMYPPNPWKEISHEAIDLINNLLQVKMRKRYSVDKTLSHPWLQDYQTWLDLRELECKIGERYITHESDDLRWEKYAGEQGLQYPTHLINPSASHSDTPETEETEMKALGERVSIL
Put plainly: in vitro radiometric kinase assay, 10-point curve; Lineweaver-Burk.

Test [5] concerns the target T5, PKD3 (Homo sapiens, UniProt O94806).
T5 construct: gene PRKD3; recombinant human PKD3
T5 sequence (O94806 1-890): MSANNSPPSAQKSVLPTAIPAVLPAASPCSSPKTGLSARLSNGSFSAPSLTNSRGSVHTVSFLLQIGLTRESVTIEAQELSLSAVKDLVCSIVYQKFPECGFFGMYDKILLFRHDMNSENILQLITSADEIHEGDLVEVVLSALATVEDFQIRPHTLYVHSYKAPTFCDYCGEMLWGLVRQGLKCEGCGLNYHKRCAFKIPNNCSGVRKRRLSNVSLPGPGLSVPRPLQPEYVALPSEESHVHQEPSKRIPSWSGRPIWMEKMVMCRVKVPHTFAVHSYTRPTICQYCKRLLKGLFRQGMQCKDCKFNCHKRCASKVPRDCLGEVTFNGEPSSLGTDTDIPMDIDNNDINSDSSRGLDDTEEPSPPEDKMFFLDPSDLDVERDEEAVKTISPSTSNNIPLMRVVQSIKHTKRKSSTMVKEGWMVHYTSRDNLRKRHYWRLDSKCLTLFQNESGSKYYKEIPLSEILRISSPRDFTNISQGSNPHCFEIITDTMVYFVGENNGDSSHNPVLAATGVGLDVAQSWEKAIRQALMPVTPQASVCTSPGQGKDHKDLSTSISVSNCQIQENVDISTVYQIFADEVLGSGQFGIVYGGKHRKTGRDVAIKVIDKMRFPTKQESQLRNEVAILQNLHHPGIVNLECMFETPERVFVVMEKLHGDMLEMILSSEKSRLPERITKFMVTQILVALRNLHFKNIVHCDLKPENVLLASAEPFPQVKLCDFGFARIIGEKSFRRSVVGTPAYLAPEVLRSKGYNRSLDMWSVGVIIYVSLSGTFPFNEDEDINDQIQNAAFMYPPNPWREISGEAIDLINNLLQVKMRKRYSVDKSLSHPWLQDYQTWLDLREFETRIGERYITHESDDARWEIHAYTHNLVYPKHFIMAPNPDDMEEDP
Put plainly: in vitro radiometric kinase assay, 10-point curve.

T2 sequence (Q05655 whole entry): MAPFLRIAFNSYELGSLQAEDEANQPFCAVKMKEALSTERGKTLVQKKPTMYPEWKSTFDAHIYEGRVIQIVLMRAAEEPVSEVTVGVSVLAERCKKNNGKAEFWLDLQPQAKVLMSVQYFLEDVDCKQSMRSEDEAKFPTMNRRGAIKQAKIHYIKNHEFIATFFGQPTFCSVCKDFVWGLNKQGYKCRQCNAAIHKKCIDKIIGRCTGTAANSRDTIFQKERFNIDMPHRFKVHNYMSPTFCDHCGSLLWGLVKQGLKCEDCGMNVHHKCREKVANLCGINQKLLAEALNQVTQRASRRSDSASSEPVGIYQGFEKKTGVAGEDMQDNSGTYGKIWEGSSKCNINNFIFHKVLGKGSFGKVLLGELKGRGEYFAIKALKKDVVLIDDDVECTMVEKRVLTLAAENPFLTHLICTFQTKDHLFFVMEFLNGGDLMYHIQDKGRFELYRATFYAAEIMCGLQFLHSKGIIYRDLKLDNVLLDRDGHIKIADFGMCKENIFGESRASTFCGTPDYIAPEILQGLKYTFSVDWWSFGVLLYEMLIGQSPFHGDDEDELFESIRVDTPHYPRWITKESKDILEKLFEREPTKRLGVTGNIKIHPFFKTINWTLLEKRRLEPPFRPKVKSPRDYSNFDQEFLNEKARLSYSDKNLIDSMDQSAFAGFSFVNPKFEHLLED

For the compound `CN(C)CCCn1cc(C2=C(c3c[nH]c4ccccc34)C(=O)NC2=O)c2ccccc21` [GF109203X], the “in vitro radiometric PKC kinase assay” value is “GF109203X was tested as a positive control and it potently and concentration-dependently inhibited PKCα and PKCδ” in test [1]; “GF109203X was tested as a positive control and it potently and concentration-dependently inhibited PKCα and PKCδ” in test [2].

On to `Fc1ccc(Cl)cc1-c1nc(Nc2ccncc2)c2nccnc2n1` [SD-208], for which the concentration for half-maximal inhibition (IC50) is 93.5 nM in test [3], 107 nM in test [4] and 105 nM in test [5].
